Reference: patent publication US20230340011A1 (Asteroid Therapeutics, priority 2022, published 2023)
Where two headings read alike, the source gives them in different places.

Molecular target: SREBP-2 (Homo sapiens (Human), UniProt Q12772)
Assay: In vitro assay SREBP-2: PathHunter U2OS SREBP-2 Nuclear Translocation Cell Line, U18666A-stimulated
Assay type: cell-based
[1] = PathHunter U2OS SREBP-2 nuclear translocation cells, U18666A 10 μM, overnight (16 hours)

| Compound | IC50 [1] | IC50 |
| --- | --- | --- |
| C[C@H](CCC(=O)N1CCC(O)(c2ccnnc2)CC1)[C@H]1CC[C@H]2[C@@H]3CC=C4C[C@@H](O)CC[C@]4(C)[C@H]3CC[C@]12C [Example 343, (R)-4-((3S,8S,9S,10R,13R,14S,17R)-3-hydroxy-10,13-dimethyl-2,3,4,7,8,9,10,11,12,13,14,15,16,17-tetradecahydro-1H-cyclopenta[a]phenanthren-17-yl)-1-(4-hydroxy-4-(pyridazin-4-yl)piperidin-1-yl) pentan-1-one] | 1000 to 10000 nM |  |
| C[C@H](CCC(=O)N1CCC(O)(c2ccncc2)CC1)[C@H]1CC[C@H]2[C@@H]3CC=C4C[C@@H](O)CC[C@]4(C)[C@H]3CC[C@]12C [Example 344, (R)-4-((3S,8S,9S,10R,13R,14S,17R)-3-hydroxy-10,13-dimethyl-2,3,4,7,8,9,10,11,12,13,14,15,16,17-tetradecahydro-1H-cyclopenta[a]phenanthren-17-yl)-1-(4-hydroxy-4-(pyridin-4-yl)piperidin-1-yl)pentan-1-one] | < 250 nM |  |
| C[C@H](CCC(=O)N1CCCC(c2ccnnc2)C1)[C@H]1CC[C@H]2[C@@H]3CC=C4C[C@@H](O)CC[C@]4(C)[C@H]3CC[C@]12C (stereo partly drawn) [Example 345, (4R)-4-((3S,8S,9S,10R,13R,14S,17R)-3-hydroxy-10,13-dimethyl-2,3,4,7,8,9,10,11,12,13,14,15,16,17-tetradecahydro-1H-cyclopenta[a]phenanthren-17-yl)-1-(3-(pyridazin-4-yl)piperidin-1-yl)pentan-1-one] | 250 to 1000 nM |  |
| C[C@H](CCC(=O)N1CCCC(c2ccncc2)C1)[C@H]1CC[C@H]2[C@@H]3CC=C4C[C@@H](O)CC[C@]4(C)[C@H]3CC[C@]12C (stereo partly drawn) [Example 346, (4R)-4-((3S,8S,9S,10R,13R,14S,17R)-3-hydroxy-10,13-dimethyl-2,3,4,7,8,9,10,11,12,13,14,15,16,17-tetradecahydro-1H-cyclopenta[a]phenanthren-17-yl)-1-(3-(pyridin-4-yl)piperidin-1-yl)pentan-1-one] | < 250 nM |  |
| C[C@H](CNC(=O)N(C)C)[C@H]1CC[C@H]2[C@@H]3CC=C4C[C@@H](O)CC[C@]4(C)[C@H]3CC[C@]12C [Example 347, 3-((S)-2-((3S,8S,9S,10R,13S,14S,17R)-3-hydroxy-10,13-dimethyl-2,3,4,7,8,9,10,11,12,13,14,15,16,17-tetradecahydro-1H-cyclopenta[a]phenanthren-17-yl)propyl)-1,1-dimethylurea] | 250 to 1000 nM |  |
| C[C@H](OCC(=O)N1CCC(C)(CO)CC1)[C@H]1CC[C@H]2[C@@H]3CC=C4C[C@@H](O)CC[C@]4(C)[C@H]3CC[C@]12C [Example 366, 2-((S)-1-((3S,8S,9S,10R,13S,14S,17S)-3-hydroxy-10,13-dimethyl-2,3,4,7,8,9,10,11,12,13,14,15,16,17-tetradecahydro-1H-cyclopenta[a]phenanthren-17-yl)ethoxy)-1-(4-(hydroxymethyl)-4-methylpiperidin-1-yl)ethan-1-one] | 250 to 1000 nM |  |
| C[C@H](CC[C@](O)(C1CC1)C(F)(F)F)[C@H]1CC[C@H]2[C@@H]3CC=C4C[C@@](C)(O)CC[C@]4(C)[C@H]3CC[C@]12C [Example 368, (3S,8S,9S,10R,13R,14S,17R)-17-((2R,5S)-5-cyclopropyl-6,6,6-trifluoro-5-hydroxyhexan-2-yl)-3,10,13-trimethyl-2,3,4,7,8,9,10,11,12,13,14,15,16,17-tetradecahydro-1H-cyclopenta[a]phenanthren-3-ol] | 250 to 1000 nM |  |
| CCC1(O)CCN(C(=O)CCC[C@H]2CC[C@H]3[C@@H]4CC=C5C[C@@H](O)CC[C@]5(C)[C@H]4CC[C@]23C)CC1 [Example 370, 1-(4-ethyl-4-hydroxypiperidin-1-yl)-4-((3S,8S,9S,10R,13R,14S,17S)-3-hydroxy-10,13-dimethyl-2,3,4,7,8,9,10,11,12,13,14,15,16,17-tetradecahydro-1H-cyclopenta[a]phenanthren-17-yl)butan-1-one] | 250 to 1000 nM |  |
| CCC1(O)CCN(C(=O)CC[C@@H](C)[C@H]2CC[C@H]3[C@@H]4CC=C5C[C@@](C)(O)CC[C@]5(C)[C@H]4CC[C@]23C)CC1 [Example 371, (R)-1-(4-ethyl-4-hydroxypiperidin-1-yl)-4-((3S,8S,9S,10R,13R,14S,17R)-3-hydroxy-3,10,13-trimethyl-2,3,4,7,8,9,10,11,12,13,14,15,16,17-tetradecahydro-1H-cyclopenta[a]phenanthren-17-yl)pentan-1-one] | 250 to 1000 nM |  |
| C[C@H](Oc1ccccn1)[C@H]1CC[C@H]2[C@@H]3CC=C4C[C@@H](O)CC[C@]4(C)[C@H]3CC[C@]12C [Example 381, (3S,8S,9S,10R,13S,14S,17S)-10,13-dimethyl-17-((S)-1-(pyridin-2-yloxy)ethyl)-2,3,4,7,8,9,10,11,12,13,14,15,16,17-tetradecahydro-1H-cyclopenta[a]phenanthren-3-ol] | 1000 to 10000 nM |  |
| C[C@H](CCC(=O)N1CCN(c2ncccn2)CC1)[C@H]1CC[C@H]2[C@@H]3CC=C4C[C@@H](O)CC[C@]4(C)[C@H]3CC[C@]12C [Example 397, (R)-4-((3S,8S,9S,10R,13R,14S,17R)-3-hydroxy-10,13-dimethyl-2,3,4,7,8,9,10,11,12,13,14,15,16,17-tetradecahydro-1H-cyclopenta[a]phenanthren-17-yl)-1-(4-(pyrimidin-2-yl)piperazin-1-yl)pentan-1-one] | < 250 nM |  |
| CC(=O)N1CCC(C(=O)N(C)CC[C@@H](C)[C@H]2CC[C@H]3[C@@H]4CC=C5C[C@@H](O)CC[C@]5(C)[C@H]4CC[C@]23C)CC1 [Example 408, 1-acetyl-N—((R)-3-((3S,8S,9S,10R,13R,14S,17R)-3-hydroxy-10,13-dimethyl-2,3,4,7,8,9,10,11,12,13,14,15,16,17-tetradecahydro-1H-cyclopenta[a]phenanthren-17-yl)butyl)-N-methylpiperidine-4-carboxamide] | 250 to 1000 nM |  |
| C[C@H](CCC(=O)N1CCC(N(C)S(C)(=O)=O)CC1)[C@H]1CC[C@H]2[C@@H]3CC=C4C[C@@H](O)CC[C@]4(C)[C@H]3CC[C@]12C [Example 415, N-{1-[(4R)-4-[(1R,3aS,3bS,7S,9aR,9bS,11aR)-7-hydroxy-9a,11a-dimethyl-1H,2H,3H,3aH,3bH,4H,6H,7H,8H,9H,9aH,9bH,10H,11H,11aH-cyclopenta[a]phenanthren-1-yl]pentanoyl]piperidin-4-yl}-N-methylmethanesulfonamide] | 250 to 1000 nM |  |
| C[C@H](CCC(=O)N1CCC(OC(=O)N(C)C)CC1)[C@H]1CC[C@H]2[C@@H]3CC=C4C[C@@H](O)CC[C@]4(C)[C@H]3CC[C@]12C [Example 418, 1-((R)-4-((3S,8S,9S,10R,13R,14S,17R)-3-hydroxy-10,13-dimethyl-2,3,4,7,8,9,10,11,12,13,14,15,16,17-tetradecahydro-1H-cyclopenta[a]phenanthren-17-yl)pentanoyl)piperidin-4-yl dimethylcarbamate] | 1000 to 10000 nM |  |
| COC(=O)N1CCN(C(=O)CC[C@@H](C)[C@H]2CC[C@H]3[C@@H]4CC=C5C[C@](O)(C(F)(F)F)CC[C@]5(C)[C@H]4CC[C@]23C)CC1 [Example 419, Methyl 4-((R)-4-((3S,8S,9S,10R,13R,14S,17R)-3-hydroxy-10,13-dimethyl-3-(trifluoromethyl)-2,3,4,7,8,9,10,11,12,13,14,15,16,17-tetradecahydro-1H-cyclopenta[a]phenanthren-17-yl)pentanoyl)piperazine-1-carboxylate] | 1000 to 10000 nM |  |
| C[C@H](CCC(=O)N1CCN(C(=O)OC2COC2)CC1)[C@H]1CC[C@H]2[C@@H]3CC=C4C[C@@H](O)CC[C@]4(C)[C@H]3CC[C@]12C [Example 425, oxetan-3-yl4-((R)-4-((3S,8S,9S,10R,13R,14S,17R)-3-hydroxy-10,13-dimethyl-2,3,4,7,8,9,10,11,12,13,14,15,16,17-tetradecahydro-1H-cyclopenta[a]phenanthren-17-yl)pentanoyl)piperazine-1-carboxylate] |  | < 250 nM |
| Cc1ncccc1O[C@@H](C)[C@H]1CC[C@H]2[C@@H]3CC=C4C[C@@H](O)CC[C@]4(C)[C@H]3CC[C@]12C [Example 430, (1S,3aS,3bS,7S,9aR,9bS,11aS)-9a,11a-dimethyl-1-[(1S)-1-[(2-methylpyridin-3-yl)oxy]ethyl]-1H,2H,3H,3aH,3bH,4H,6H,7H,8H,9H,9aH,9bH,10H,11H,11aH-cyclopenta[a]phenanthren-7-ol] | 250 to 1000 nM |  |
| Cc1cncc(O[C@@H](C)[C@H]2CC[C@H]3[C@@H]4CC=C5C[C@@H](O)CC[C@]5(C)[C@H]4CC[C@]23C)c1 [Example 432, (3S,8S,9S,10R,13S,14S,17S)-10,13-dimethyl-17-((S)-1-((5-methylpyridin-3-yl)oxy)ethyl)-2,3,4,7,8,9,10,11,12,13,14,15,16,17-tetradecahydro-1H-cyclopenta[a]phenanthren-3-ol] | < 250 nM |  |
| Cc1ccncc1O[C@@H](C)[C@H]1CC[C@H]2[C@@H]3CC=C4C[C@@H](O)CC[C@]4(C)[C@H]3CC[C@]12C [Example 433, (3S,8S,9S,10R,13S,14S,17S)-10,13-dimethyl-17-((S)-1-((4-methylpyridin-3-yl)oxy)ethyl)-2,3,4,7,8,9,10,11,12,13,14,15,16,17-tetradecahydro-1H-cyclopenta[a]phenanthren-3-ol] | 250 to 1000 nM |  |
| C[C@H](Oc1cccnc1CO)[C@H]1CC[C@H]2[C@@H]3CC=C4C[C@@H](O)CC[C@]4(C)[C@H]3CC[C@]12C [Example 434, (3S,8S,9S,10R,13S,14S,17S)-17-((S)-1-((2-(hydroxymethyl)pyridin-3-yl)oxy)ethyl)-10,13-dim ethyl-2,3,4,7,8,9,10,11,12,13,14,15,16,17-tetradecahydro-1H-cyclopenta[a]phenanthren-3-ol] | 250 to 1000 nM |  |
| C[C@H](Oc1ccc(CO)nc1)[C@H]1CC[C@H]2[C@@H]3CC=C4C[C@@H](O)CC[C@]4(C)[C@H]3CC[C@]12C [Example 435, (3S,8S,9S,10R,13S,14S,17S)-17-((S)-1-((6-(hydroxymethyl)pyridin-3-yl)oxy)ethyl)-10,13-dim ethyl-2,3,4,7,8,9,10,11,12,13,14,15,16,17-tetradecahydro-1H-cyclopenta[a]phenanthren-3-ol] | 250 to 1000 nM |  |
